Reference: patent publication US20130109682A1, “CYCLIC ETHER COMPOUNDS USEFUL AS KINASE INHIBITORS” (NOVARTIS AG, priority 2010, published 2013)

Legend:
GSK3β = GSK3β (Homo sapiens, UniProt P49841); assay: GSK3β ATP depletion assay; assay type: biochemical; conditions: ATP depletion assay; read-out: GSK3b IC50
Procedure, shortened: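 Kinase activity is read as ATP consumption: luciferase luminescence reports the ATP remaining once roughly half of the 2 μM ATP is used. Reaction mix: 5 nM GSK3β, 10 μM b-CREB peptide, 50 mM Tris pH 7.5, 15 mM MgCl2, 1 mM DTT, 0.1% BSA, 2.5% DMSO. Enzyme and peptide are preincubated 15 min before ATP is added.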

PIM3 = PIM3 (Homo sapiens, UniProt Q86V86); assay: Pim 3 AlphaScreen assay (high ATP); assay type: biochemical; conditions: read-out: Pim3 IC50
Procedure, shortened: (§1)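 IC50 values rest on detection of phosphorylated Bad peptide: after a ~2 h kinase reaction, an EDTA stop buffer containing anti-phospho Ser/Thr antibody, Protein A and streptavidin AlphaScreen beads was added and read after overnight dark incubation. ATP was high (11-125× Km), with 2.5% DMSO in pH 7.5 Hepes buffer containing MgCl2, BSA, Tween-20 and DTT.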

PIM1 = PIM1 (Homo sapiens, UniProt P11309); assay: Pim 1 AlphaScreen assay (high ATP); assay type: biochemical; conditions: read-out: Pim1 IC50
Procedure, shortened: as §1

PIM2 = PIM2 (Homo sapiens, UniProt Q9P1W9); assay: Pim 2 AlphaScreen assay (high ATP); assay type: biochemical; conditions: read-out: Pim2 IC50
Procedure, shortened: as §1

[1] = tested on: KMS11 (human myeloma cell line); assay: Cell proliferation assay (CellTiter-Glo), KMS11; assay type: cell-based; conditions: Homo sapiens, KMS-11; KMS11 cells, cell proliferation; read-out: KMS11-Luc EC50
Procedure, shortened: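 EC50 derived from CellTiter-Glo luminescence after 3-day exposure at 37° C. Compound was diluted to 2× in medium and added to an equal volume of cells. KMS11 myeloma cells were plated on assay day at 2000/well in IMDM with 10% FBS and sodium pyruvate.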

Sequence of GSK3β (P49841 whole entry, species assumed): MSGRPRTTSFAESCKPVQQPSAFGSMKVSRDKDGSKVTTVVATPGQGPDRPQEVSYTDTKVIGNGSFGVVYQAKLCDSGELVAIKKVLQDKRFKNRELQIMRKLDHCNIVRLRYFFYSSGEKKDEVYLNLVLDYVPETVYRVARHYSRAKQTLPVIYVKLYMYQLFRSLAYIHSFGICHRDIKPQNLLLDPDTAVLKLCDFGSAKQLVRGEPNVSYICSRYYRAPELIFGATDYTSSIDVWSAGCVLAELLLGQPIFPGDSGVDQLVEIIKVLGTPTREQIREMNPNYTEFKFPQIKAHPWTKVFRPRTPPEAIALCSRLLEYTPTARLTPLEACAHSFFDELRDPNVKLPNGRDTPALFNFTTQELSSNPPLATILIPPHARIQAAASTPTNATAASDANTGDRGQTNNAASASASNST
Sequence of PIM1 (P11309 whole entry): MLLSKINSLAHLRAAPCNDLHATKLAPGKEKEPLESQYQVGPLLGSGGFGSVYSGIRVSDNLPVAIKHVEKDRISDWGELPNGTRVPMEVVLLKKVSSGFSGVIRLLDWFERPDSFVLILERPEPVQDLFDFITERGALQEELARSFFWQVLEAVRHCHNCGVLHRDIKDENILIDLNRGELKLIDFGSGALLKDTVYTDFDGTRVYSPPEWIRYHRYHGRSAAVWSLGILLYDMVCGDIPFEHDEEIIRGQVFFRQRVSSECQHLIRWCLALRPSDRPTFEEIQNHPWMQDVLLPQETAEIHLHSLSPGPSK
Sequence of PIM2 (Q9P1W9 whole entry): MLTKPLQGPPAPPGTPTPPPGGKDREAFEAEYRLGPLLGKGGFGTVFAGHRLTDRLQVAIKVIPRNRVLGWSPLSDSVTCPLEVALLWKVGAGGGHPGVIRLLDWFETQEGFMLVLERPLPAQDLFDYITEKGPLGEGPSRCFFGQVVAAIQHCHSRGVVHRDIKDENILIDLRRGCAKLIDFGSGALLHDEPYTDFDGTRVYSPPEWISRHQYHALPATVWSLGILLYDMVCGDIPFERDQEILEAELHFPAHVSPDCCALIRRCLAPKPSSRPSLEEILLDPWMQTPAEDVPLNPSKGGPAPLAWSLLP

| Compound | IC50 (GSK3β) [nM] | IC50 (PIM3) [nM] | IC50 (PIM1) [nM] | IC50 (PIM2) [nM] | EC50 [1] [nM] |
| --- | --- | --- | --- | --- | --- |
| Cc1cc(F)c(-c2nc(C(=O)Nc3cnccc3[C@@H]3C[C@@H](N)CC(C)(C)O3)ccc2F)c(F)c1 [Example 313, N-(4-((2S,4R)-4-amino-6,6-dimethyltetrahydro-2H-pyran-2-yl)pyridin-3-yl)-6-(2,6-difluoro-4-methylphenyl)-5-fluoropicolinamide] | 128 | 1.4 | 0.06 | 8.6 | 360 |
| COc1cc(F)c(-c2nc(C(=O)Nc3cnccc3[C@H]3C[C@@H](N)[C@H](O)[C@@H](C4CC4)O3)ccc2F)c(F)c1 [Example 323, N-(4-((2R,4R,5S,6R)-4-amino-6-cyclopropyl-5-hydroxytetrahydro-2H-pyran-2-yl)pyridin-3-yl)-6-(2,6-difluoro-4-methoxyphenyl)-5-fluoropicolinamide] | 4200 | 9.7 | 0.3 | 13.4 | 190 |
| C[C@H]1O[C@@H](c2ccncc2NC(=O)c2nn(Cc3ccccc3)cc2N)C[C@@H](O)[C@]1(C)O [Example 218, 4-amino-1-benzyl-N-(4-((2R,4R,5S,6R)-4,5-dihydroxy-5,6-dimethyltetrahydro-2H-pyran-2-yl)pyridin-3-yl)-1H-pyrazole-3-carboxamide] | 1290 | > 25000 | 12500 | > 25000 | > 10000 |
| CC1(C)C[C@H](N)C[C@@H](c2ccncc2NC(=O)c2ccc(F)c(-c3c(F)cc(OCCO)cc3F)n2)O1 [Example 314, N-(4-((2S,4R)-4-amino-6,6-dimethyltetrahydro-2H-pyran-2-yl)pyridin-3-yl)-6-(2,6-difluoro-4-(2-hydroxyethoxy)phenyl)-5-fluoropicolinamide] | 109 | 1.1 | 0.05 | 7.5 | 60 |
| CC(C)[C@H]1OC(c2ccncc2NC(=O)c2ccc(F)c(-c3c(F)cc(OCCO)cc3F)n2)C[C@@H](N)[C@@H]1O (stereo in doubt) [Example 319, N-(4-((2S,4R,5S,6R)-4-amino-5-hydroxy-6-isopropyltetrahydro-2H-pyran-2-yl)pyridin-3-yl)-6-(2,6-difluoro-4-(2-hydroxyethoxy)phenyl)-5-fluoropicolinamide] | 1570 | 1.8 | 0.07 | 3.5 | 30 |
| CC(C)[C@@H]1C[C@H](N)CC(c2ccncc2NC(=O)c2ccnc(-c3c(F)cccc3F)n2)O1 (stereo in doubt) [Example 328, N-(4-((2S,4S,6S)-4-amino-6-isopropyltetrahydro-2H-pyran-2-yl)pyridin-3-yl)-2-(2,6-difluorophenyl)pyrimidine-4-carboxamide] | – | 172 | 7 | 165 | 540 |
| COc1cc(F)c(-c2nc(C(=O)Nc3cnccc3[C@@H]3C[C@H](N)[C@@H](O)[C@H](C4CC4)O3)ccc2F)c(F)c1 [Example 325, N-(4-((2S,4S,5R,6S)-4-amino-6-cyclopropyl-5-hydroxytetrahydro-2H-pyran-2-yl)pyridin-3-yl)-6-(2,6-difluoro-4-methoxyphenyl)-5-fluoropicolinamide] | > 25000 | 181 | 4 | 504 | 5470 |
| CC[C@H]1O[C@@H](c2ccncc2NC(=O)c2ccc(F)c(-c3c(F)cccc3F)n2)C[C@@H](N)[C@@H]1O [Example 331, N-(4-((2R,4R,5S,6R)-4-amino-6-ethyl-5-hydroxytetrahydro-2H-pyran-2-yl)pyridin-3-yl)-6-(2,6-difluorophenyl)-5-fluoropicolinamide] | – | 6 | 0.2 | 11.8 | 70 |
| CNC(=O)c1ccc(F)c(-c2nc(C(=O)Nc3cnccc3C3C[C@@H](N)[C@H](O)[C@@H](C(C)C)O3)ccc2F)c1F (stereo in doubt) [Example 316, N-(4-((2S,4R,5S,6R)-4-amino-5-hydroxy-6-isopropyltetrahydro-2H-pyran-2-yl)pyridin-3-yl)-6-(2,6-difluoro-3-(methylcarbamoyl)phenyl)-5-fluoropicolinamide] | 4390 | 5.76 | 0.27 | 5.1 | 60 |
| CC(C)[C@H]1O[C@@H](c2ccncc2NC(=O)c2ccc(F)c(-c3c(F)ccc(C#N)c3F)n2)C[C@@H](N)[C@@H]1O [Example 329, N-(4-((2R,4R,5S,6R)-4-amino-5-hydroxy-6-isopropyltetrahydro-2H-pyran-2-yl)pyridin-3-yl)-6-(3-cyano-2,6-difluorophenyl)-5-fluoropicolinamide] | – | 14.7 | 0.7 | 14.7 | 190 |
| C[C@@H]1O[C@H](c2ccncc2NC(=O)c2ccc(F)c(-c3c(F)cccc3F)n2)C[C@H](N)[C@@]1(C)O [Example 220, N-(4-((2S,4S,5R,6S)-4-amino-5-hydroxy-5,6-dimethyltetrahydro-2H-pyran-2-yl)pyridin-3-yl)-6-(2,6-difluorophenyl)-5-fluoropicolinamide] | 9140 | 29.9 | 2.09 | 228 | 6210 |
| COCCOc1cc(F)c(-c2nc(C(=O)Nc3cnccc3[C@@H]3C[C@@H](N)CC(C)(C)O3)ccc2F)c(F)c1 [Example 315, N-(4-((2S,4R)-4-amino-6,6-dimethyltetrahydro-2H-pyran-2-yl)pyridin-3-yl)-6-(2,6-difluoro-4-(2-methoxyethoxy)phenyl)-5-fluoropicolinamide] | 121 | 1.5 | 0.07 | 11.7 | 200 |
| CSc1ccc(F)c(-c2nc(C(=O)Nc3cnccc3[C@H]3C[C@@H](N)[C@](C)(O)[C@@H](C)O3)ccc2F)c1F [Example 327, N-(4-((2R,4R,5S,6R)-4-amino-5-hydroxy-5,6-dimethyltetrahydro-2H-pyran-2-yl)pyridin-3-yl)-6-(2,6-difluoro-3-(methylthio)phenyl)-5-fluoropicolinamide] | 640 | 2.6 | 0.07 | 18.8 | 310 |
| Cc1cc(F)c(-c2nc(C(=O)Nc3cnccc3[C@@H]3C[C@H](N)[C@@H](O)[C@H](C4CC4)O3)ccc2F)c(F)c1 [Example 324, N-(4-((2S,4S,5R,6S)-4-amino-6-cyclopropyl-5-hydroxytetrahydro-2H-pyran-2-yl)pyridin-3-yl)-6-(2,6-difluoro-4-methylphenyl)-5-fluoropicolinamide] | > 25000 | 184 | 3.4 | 396 | 4320 |
| C[C@H]1O[C@@H](c2ccncc2NC(=O)c2ccc(F)c(-c3ccc(S(C)(=O)=O)cc3)n2)C[C@@H](N)[C@]1(C)O [Example 321, N-(4-((2R,4R,5S,6R)-4-amino-5-hydroxy-5,6-dimethyltetrahydro-2H-pyran-2-yl)pyridin-3-yl)-5-fluoro-6-(4-(methylsulfonyl)phenyl)picolinamide] | 1880 | 783 | 4.7 | 1370 | > 10000 |
| CC[C@@H]1O[C@H](c2ccncc2NC(=O)c2ccc(F)c(-c3c(F)cccc3F)n2)C[C@H](N)[C@H]1O [Example 332, N-(4-((2S,4S,5R,6S)-4-amino-6-ethyl-5-hydroxytetrahydro-2H-pyran-2-yl)pyridin-3-yl)-6-(2,6-difluorophenyl)-5-fluoropicolinamide] | – | 157 | 6.3 | 310 | 4200 |
| Cc1cc(F)c(-c2nc(C(=O)Nc3cnccc3[C@H]3C[C@@H](N)[C@H](O)[C@@H](C4CC4)O3)ccc2F)c(F)c1 [Example 322, N-(4-((2R,4R,5S,6R)-4-amino-6-cyclopropyl-5-hydroxytetrahydro-2H-pyran-2-yl)pyridin-3-yl)-6-(2,6-difluoro-4-methylphenyl)-5-fluoropicolinamide] | 5240 | 9 | 0.3 | 6.7 | 230 |
| C[C@H]1O[C@@H](c2ccncc2NC(=O)c2ccc(F)c(-c3ccccc3)n2)C[C@@H](N)[C@]1(C)O [Example 320, N-(4-((2R,4R,5S,6R)-4-amino-5-hydroxy-5,6-dimethyltetrahydro-2H-pyran-2-yl)pyridin-3-yl)-5-fluoro-6-phenylpicolinamide] | 3250 | 42 | 1 | 245 | 4670 |
| CS(=O)(=O)c1cc(F)c(-c2nc(C(=O)Nc3cnccc3[C@@H]3C[C@H](N)[C@@H](O)[C@H](C4CC4)O3)ccc2F)c(F)c1 [Example 326, N-(4-((2S,4S,5R,6S)-4-amino-6-cyclopropyl-5-hydroxytetrahydro-2H-pyran-2-yl)pyridin-3-yl)-6-(2,6-difluoro-4-(methylsulfonyl)phenyl)-5-fluoropicolinamide] | > 25000 | 1930 | 27.5 | 2200 | > 10000 |
